{
  "source": "patent US11845770B2",
  "about": "“Ascaroside derivatives and methods of use” (California Institute of Technology, priority 2019, dated 2023)",
  "assay_type_in_all_cases": "cell-based",
  "key": {"[1]": {"system": "THP1 human macrophage cells", "test": "Stimulation of THP-1 cells, IL-6 at 6 or 36 hours post stimulation", "conditions": "THP1-derived macrophages, IFNγ + LPS, 0.1 to 500 μM, FIG. 9", "experimental": "Human immortalized monocytic THP-1 cells were maintained in phenol red free RPMI 1640 medium containing 10% (v/v) fetal bovine serum (FBS), 2 mM L-glutamine, penicillin (100 units/mL), streptomycin (100 μg/mL), amphotericin B (2.5 μg/mL), and 50 μM beta-mercaptoethanol (BME) at 37° C. with 5% (v/v) CO2. THP-1 cells were seeded in 1 mL of THP-1 medium (cell culture medium containing 10% (v/v) FBS, 2 mM L-glutamine, penicillin (100 units/mL), streptomycin (100 μg/mL), amphotericin B ([…]), and 50 μM BME)/well at a density of 1×10^6 cells/mL in six-well plates. Cells were differentiated by adding 10, 50, or 100 nM phorbol 12-myristate 13-acetate (PMA) to each well before incubating cells for 5.5 h at 37° C. with 5% (v/v) CO2. Without removing the media, different concentrations (either 0, 0.1, 1.0, 10, 100, 200, or 500 μM) of the compound were added to each well. Cells were stimulated, within 30 min by adding 20 ng/mL interferon gamma (IFNγ) and 100 ng/mL lipopolysaccharide (LPS) to each well. Following stimulation, the THP-1 cells were incubated for 6 or 36 hours at 37° C. with 5% (v/v) CO2. Supernatant was collected and stored at −80° C. until use.\nIL-6 released from supernatants collected at 6 or 36 hours post stimulation with IFNγ and LPS were measured using the AlphaLISA Human IL-6 detection kit."}, "[2]": {"system": "human naïve T cells", "test": "Stimulation of blood derived naïve T cells with Der p1 (house dust mite) antigen", "conditions": "at 100 μM; human T cells, Der p1 antigen; FIG. 15", "experimental": "Naïve T cells from peripheral blood samples were collected and processed using MACSxpress® Whole Blood Pan T Cell Isolation Kit (Miltenyi Biotec), according to the manufacturer's protocol. Isolated naïve T cells were cultured in RPMI medium supplemented with 5% Fetal Bovine Serum (FBS) at 37° C. with 5% (v/v) CO2. T cells were seeded in 24 well plates at a density of 0.5×10^6 cells per well. The cells were pre-treated with the compounds (0, 0.1, 1.0, 10, 100 μM) for 1 hour prior to stimulation. Cells were stimulated with […] of Dermatophagoides pteronyssinus (Der p1) antigen. After 48 hours, fresh […] of Der p1 was added and continued incubating for a further 72 hours at 37° C. with 5% (v/v) CO2. Overall T cells were stimulated with […] of Der p1 antigen for 5 days before supernatants were collected and stored at −80° C. until quantitative detection assays are performed.\nHuman Interleukin-4 (IL-4), Interleukin-5 (IL-5), Interleukin-6 (IL-6), Interleukin-8 (IL-8), Interleukin-13 ([…]), Interleukin-23 (IL-23), and Interferon gamma (IFNγ) released from supernatants collected post stimulation were measured using Human Magnetic Luminex® Assay Kit. Human Transforming Growth Factor beta (TGFβ) was measured using an Enzyme-Linked Immunosorbent Assay (ELISA)-based analysis."}, "[3]": {"system": "EPC2 human esophageal keratinocytes", "test": "Stimulation of EPC2-hTERT human esophageal keratinocytes with Poly(I:C)", "conditions": "24 hours; for percent inhibition relative to Stimulated of TSLP expression: FIG. 19A; for percent inhibition relative to Stimulated of IL-6 expression: FIG. 19B; for percent inhibition relative to Stimulated of MCP-1 expression: FIG. 19C", "experimental": "EPC2-hTERT (EPC2) cells were maintained in supplemented keratinocyte serum-free medium (KSFM) with 0.09 mM calcium chloride containing epidermal growth factor (5 ng/mL), bovine pituitary extract ([…]), penicillin (100 units/mL), and streptomycin ([…]) (ThermoFisher #17005042) at 37° C. with 5% (v/v) CO2. EPC2 cells were seeded in 12-well plates at 0.55×10^6 cells per well in supplemented KSFM at 37° C. with 5% (v/v) CO2 and after 6 hours the old media is removed and changed with fresh media. After overnight incubation, the old media is changed to supplemented KSFM containing 1.8 mM calcium chloride and incubated for 72 hours at 37° C. with 5% (v/v) CO2. After the old media is removed and fresh supplemented KSFM containing 1.8 mM calcium chloride is added, the cells are pre-treated with different concentrations of compounds (0, 1, 10, 100, 500, 1000 μM) for 1 hour prior to stimulation. To stimulate the cells, Poly (I:C) (Tocris #4287) is added to the wells at […] concentration without removing the media and incubated for 24 hours at 37° C. with 5% (v/v) CO2. Supernatants are collected in Eppendorf tubes, centrifuged in a microfuge at maximum speed for 10 minutes at 4° C., and the centrifuged supernatants stored at −80° C. until quantitative detection assays are performed. Human Interleukin-6 (IL-6), Monocyte Chemoattractant Protein-1 (MCP-1), and Thymic stromal lymphopoietin (TSLP) released from supernatants collected post stimulation were measured using the AlphaLISA detection kit for human IL-6, MCP-1, and TSLP, respectively."}, "[4]": {"system": "BEAS-2B human lung epithelial cells", "test": "Stimulation of BEAS-2B human lung epithelial cells, cytokine expression", "conditions": "20 ng/mL IL-1β, 48 h; for percent inhibition relative to Stimulated of Eotaxin expression: FIG. 12, FIG. 13", "experimental": "BEAS-2B cells were maintained in Bronchial Epithelial Cell Growth Basal Medium (BEBM) containing all the recommended supplements for the Bronchial Epithelial Cell Growth Medium (BEGM; Lonza #CC-4175) and allowed to attain approximately 70% confluency with media changed every 2-3 days at 37° C. with 5% (v/v) CO2. Tissue culture flasks/vessels were pre-coated with a mixture of 0.01 mg/mL fibronectin (Sigma), 0.03 mg/ml bovine collagen type I (Sigma) and 0.01 mg/mL bovine serum albumin dissolved in the BEBM. BEAS-2B cells were seeded with 0.5 ml of 1×10^6 cells/mL in BEGM per well on 24-well plates and incubated overnight at 37° C. with 5% (v/v) CO2. The cells are pre-treated with different concentrations of compounds (0, 1.0, 10, 100, 1000 μM) for 1 hour prior to stimulation. To stimulate the cells, 10 ng/mL of Interleukin-1 beta (IL-1β), 10 ng/mL of Lipopolysaccharides (LPS), or 20 ng/mL of IL-1$ is added to the wells without removing the media and incubated for 48 hours at 37° C. with 5% (v/v) CO2. Supernatants were collected and stored at −80° C. until quantitative detection assays are performed. Human Eotaxin, Monocyte Chemoattractant Protein-1 (MCP-1), Interleukin-6 (IL-6), Interleukin-25 (IL-25), Interleukin-33 (IL-33), Thymic stromal lymphopoietin (TSLP), and Granulocyte-Macrophage Colony-Stimulating Factor (GM-CSF) released from supernatants collected post stimulation were measured using Human Magnetic Luminex® Assay Kit. Human CCL5/RANTES was measured using an Enzyme-Linked Immunosorbent Assay (ELISA)-based analysis."}},
  "note": "“Also recorded” adds a separate entry of the source.",
  "data": [
    {"smiles": "C[C@H](CC/C=C/C(=O)OCc1cccnc1)O[C@@H]1O[C@@H](C)[C@H](O)C[C@H]1O", "note": "[Compound 5, pyridin-3-ylmethyl (2E,6R)-6-{[(2R,3R,5R,6S)-3,5-dihydroxy-6-methyloxan-2-yl]oxy}hept-2-enoate]", "values": [
      {"measurement": "percent inhibition relative to Control of IL-6 levels secreted", "setting": "[1]", "result": "inhibited IL-6 expression in statistically significant, dose-dependent manner"}
    ]},
    {"smiles": "C[C@H](CC/C=C/C(=O)OCc1ccccc1)O[C@@H]1O[C@@H](C)[C@H](O)C[C@H]1O", "note": "[Compound 4, benzyl (2E,6R)-6-{[(2R,3R,5R,6S)-3,5-dihydroxy-6-methyloxan-2-yl]oxy}hept-2-enoate]", "values": [
      {"measurement": "percent inhibition relative to Stimulated of IL-6 expression", "setting": "[2]", "result": "statistically significant inhibition"},
      {"measurement": "percent inhibition relative to Stimulated of IL-8 expression", "setting": "[2]", "result": "statistically significant inhibition"},
      {"measurement": "percent inhibition relative to Stimulated of TNFα expression", "setting": "[2]", "result": "statistically significant inhibition"},
      {"measurement": "percent inhibition relative to Stimulated of TSLP expression", "setting": "[3]; increasing concentrations", "result": "statistically significant inhibition; also recorded: completely inhibited"},
      {"measurement": "percent inhibition relative to Stimulated of IL-6 expression", "setting": "[3]; increasing concentrations", "result": "inhibited IL-6 expression in statistically significant, dose-dependent manner"},
      {"measurement": "percent inhibition relative to Stimulated of MCP-1 expression", "setting": "[3]; increasing concentrations", "result": "inhibited MCP-1 expression in statistically significant manner; also recorded: only showed inhibition at the highest 100 μM concentration"}
    ]},
    {"smiles": "CC(C)OC(=O)/C=C/CC[C@@H](C)O[C@@H]1O[C@@H](C)[C@H](O)C[C@H]1O", "note": "[Compound 8, isopropyl (R,E)-6-(((2R,3R,5R,6S)-3,5-dihydroxy-6-methyltetrahydro-2H-pyran-2-yl)oxy)hept-2-enoate]", "values": [
      {"measurement": "percent inhibition relative to Control of IL-6 levels secreted", "setting": "[1]", "result": "inhibited IL-6 expression in statistically significant, dose-dependent manner"}
    ]},
    {"smiles": "C[C@@H]1O[C@@H](OCCC/C=C/C(=O)OC(C)(C)C)[C@H](O)C[C@H]1O", "note": "[Compound 11, tert-butyl (E)-6-(((2R,3R,5R)-3,5-dihydroxy-6-methyltetrahydro-2H-pyran-2-yl)oxy)hex-2-enoate]", "values": [
      {"measurement": "percent inhibition relative to Control of IL-6 levels secreted", "setting": "[1]", "result": "inhibited IL-6 expression in statistically significant, dose-dependent manner"},
      {"measurement": "percent inhibition relative to Stimulated of MCP-1 expression", "setting": "[3]; increasing concentrations", "result": "inhibited MCP-1 expression in statistically significant, dose-dependent manner"}
    ]},
    {"smiles": "C[C@H](CC/C=C/C(=O)OCc1ccncc1)O[C@@H]1O[C@@H](C)[C@H](O)C[C@H]1O", "note": "[Compound 6, pyridin-4-ylmethyl (2E,6R)-6-{[(2R,3R,5R,6S)-3,5-dihydroxy-6-methyloxan-2-yl]oxy}hept-2-enoate]", "values": [
      {"measurement": "percent inhibition relative to Control of IL-6 levels secreted", "setting": "[1]", "result": "inhibited IL-6 expression in statistically significant, dose-dependent manner"},
      {"measurement": "percent inhibition relative to Stimulated of IL-33 expression", "setting": "[4]; FIG. 12", "result": "statistically significant inhibition"},
      {"measurement": "percent inhibition relative to Stimulated of TSLP expression", "setting": "[4]; FIG. 12", "result": "statistically significant inhibition"},
      {"measurement": "percent inhibition relative to Stimulated of Eotaxin expression", "setting": "[4]", "result": "statistically significant inhibition"},
      {"measurement": "percent inhibition relative to Stimulated of IL-25 expression", "setting": "[4]; compound concentration series, FIG. 12", "result": "robust inhibition of IL-25 expression at 1 mM concentration"},
      {"measurement": "percent inhibition relative to Stimulated of IL-25 expression, level at which it topped out", "setting": "[4]; even at 100 μM, FIG. 12", "result": 60, "unit": "%"}
    ]},
    {"smiles": "C[C@H](CC/C=C/C(=O)N1CCCC1)O[C@@H]1O[C@@H](C)[C@H](O)C[C@H]1O", "note": "[Compound 13, (R,E)-6-(((2R,3R,5R,6S)-3,5-dihydroxy-6-methyltetrahydro-2H-pyran-2-yl)oxy)-1-(pyrrolidin-1-yl)hept-2-en-1-one]", "values": [
      {"measurement": "percent inhibition relative to Control of IL-6 levels secreted", "setting": "[1]", "result": "inhibited IL-6 expression in statistically significant, dose-dependent manner"},
      {"measurement": "percent inhibition relative to Stimulated of TSLP expression", "setting": "[3]; increasing concentrations", "result": "inhibited TSLP expression in statistically significant manner; also recorded: robust blocking"},
      {"measurement": "percent inhibition relative to Stimulated of MCP-1 expression", "setting": "[3]; increasing concentrations", "result": "inhibited MCP-1 expression in statistically significant manner"},
      {"measurement": "percent inhibition relative to Stimulated of MCP-1 expression", "setting": "[3]; increasing concentrations, listed as compound 13", "result": "robust blocking of MCP-1 expression starting at 1 mM"}
    ]},
    {"smiles": "C[C@H](CCC(O)CC(=O)OC(C)(C)C)O[C@@H]1O[C@@H](C)[C@H](O)C[C@H]1O", "note": "(stereo partly drawn) [Compound 9, tert-butyl (6R)-6-(((2R,3R,5R,6S)-3,5-dihydroxy-6-methyltetrahydro-2H-pyran-2-yl)oxy)-3-hydroxyheptanoate]", "values": [
      {"measurement": "percent inhibition relative to Control of IL-6 levels secreted", "setting": "[1]", "result": "inhibited IL-6 expression in statistically significant, dose-dependent manner"}
    ]},
    {"smiles": "C[C@H](CCC1CC1C(=O)OC(C)(C)C)O[C@@H]1O[C@@H](C)[C@H](O)C[C@H]1O", "note": "(stereo partly drawn) [Compound 2, tert-butyl 2-[(3R)-3-{[(2R,3R,5R,6S)-3,5-dihydroxy-6-methyloxan-2-yl]oxy}butyl]cyclopropane-1-carboxylate]", "values": [
      {"measurement": "percent inhibition relative to Control of IL-6 levels secreted", "setting": "[1]", "result": "inhibited IL-6 expression in statistically significant, dose-dependent manner"},
      {"measurement": "percent inhibition relative to Stimulated of Eotaxin expression", "setting": "[4]", "result": "statistically significant, complete inhibition"},
      {"measurement": "percent inhibition relative to Stimulated of IL-6 expression", "setting": "[3]; increasing concentrations", "result": "inhibited IL6 expression in statistically significant manner"},
      {"measurement": "percent inhibition relative to Stimulated of MCP-1 expression", "setting": "[3]; increasing concentrations", "result": "inhibited MCP-1 expression in statistically significant manner; also recorded: only showed inhibition at the highest 100 μM concentration"},
      {"measurement": "percent inhibition relative to Stimulated of IL-6 expression", "setting": "[3]; at 100 μM", "result": "robust inhibition"}
    ]}
  ]
}
